Measurements as given in PMC4182091, “A Common Minimal Motif for the Ligands of HLA-B*27 Class I Molecules” (PLoS ONE, 2014).
Ends that are not written are not given here.

Legend:
Assay type in all cases: cell-based
[1] = target: T1, HLA-B*2705 (Homo sapiens, UniProt P01889, D138H/D201E/E176V/E204Q/G107R/H137Y/K202T/N104T/N87E/Q56L/Q94K/R106L/R155S/R180L/S101D/S121N/S48T/Y140D/Y33H/Y91C); assay: HLA/peptide complex stability assay, RMA-S cells transfected with HLA-B*2705; conditions: SD
T1 construct: expressed in transfected cells; host or cells: RMA-S (TAP-deficient murine cell line)

[2] = target: T2, HLA-B*2703 (Homo sapiens, UniProt P01889, D138H/D201E/E176V/E204Q/G107R/H137Y/K202T/N104T/N87E/Q56L/Q94K/R106L/R155S/R180L/S101D/S121N/S48T/Y140D/Y33H/Y83H/Y91C); assay: HLA/peptide complex stability assay, RMA-S cells transfected with HLA-B*2703; conditions: EC50, B*2703; SD
T2 construct: expressed in transfected cells; host or cells: RMA-S (TAP-deficient murine cell line)

[3] = target: HLA-B*2704 (Homo sapiens, UniProt P01889, A235G/D138H/D201E/E204Q/G107R/H137Y/K202T/N104T/N87E/Q56L/Q94K/R106L/R155S/R180L/S121N/S48T/Y140D/Y33H/Y91C); assay: HLA/peptide complex stability assay, RMA-S cells transfected with HLA-B*2704; conditions: SD
[4] = target: T3, HLA-B*2706 (Homo sapiens, UniProt P01889, A235G/D201E/E204Q/G107R/H137Y/K202T/N104T/N87E/Q56L/Q94K/R106L/R155S/R180L/S121N/S48T/Y33H/Y91C); assay: HLA/peptide complex stability assay, RMA-S cells transfected with HLA-B*2706; conditions: SD
T3 construct: expressed in transfected cells; host or cells: RMA-S (TAP-deficient murine cell line)

[5] = target: T4, HLA-B*2701 (Homo sapiens, UniProt P01889, D138H/D201E/D98Y/E176V/E204Q/G107R/H137Y/K202T/L105A/N104T/N87E/Q56L/Q94K/R106L/R155S/R180L/S101N/S121N/S48T/Y140D/Y33H/Y91C); assay: HLA/peptide complex stability assay, RMA-S cells transfected with HLA-B*2701; conditions: SD
T4 construct: expressed in transfected cells; host or cells: RMA-S (TAP-deficient murine cell line)

[6] = target: HLA-B*2702 (Homo sapiens, UniProt P01889, D138H/D201E/E176V/E204Q/G107R/H137Y/K202T/L105A/N104I/N87E/Q56L/Q94K/R106L/R155S/R180L/S101N/S121N/S48T/Y140D/Y33H/Y91C); assay: HLA/peptide complex stability assay, RMA-S cells transfected with HLA-B*2702; conditions: EC50, B*2702; SD
[7] = target: T5, HLA-B*2709 (Homo sapiens, UniProt P01889, D138H/D201E/E176V/E204Q/G107R/H137Y/K202T/N104T/N87E/Q56L/Q94K/R106L/R155S/R180L/S101D/S121N/S48T/Y140H/Y33H/Y91C); assay: HLA/peptide complex stability assay, RMA-S cells transfected with HLA-B*2709; conditions: EC50, B*2709; SD
T5 construct: expressed in transfected cells; host or cells: RMA-S (TAP-deficient murine cell line)

“RRAIATPGM [Flu PB1 238-246, reference compound]” gave an EC50 [1] of 3 ± 2 µM, an EC50 [2] of 2 ± 1 µM and an EC50 [3] of 9 ± 1 µM. It also gave an EC50 [4] of 2 ± 1 µM, an EC50 [5] of 5 ± 1 µM and an EC50 [6] of 12 ± 4 µM. For the same sequence, the EC50 [7] was 2 ± 1 µM.
